# Structures can show the parent of a compound that is named as a salt.
# Tested on: E. coli clinical isolates
# Test: screen of strains in broth medium containing FAC
# Format: cell-based
# Design: key to colour: Red, Green, Black or Purple mean strong colour; Red, Green, Black or Purple mean strong colour; Red, Green, Black or Purple mean strong colour; Red, Green, Black or Purple mean strong colour; +/− means less colour than strong; Tr means a trace of colour, less than +/−; — means no colour
# Conditions: for colour: 37° C. 18 hours
# Source text: In order to obtain a fuller picture of the sensitivity of the substrates, they were screened with 100 different clinical isolates of E. coli in a liquid medium containing FAC. The isolates were chosen at random from the Microbiology Department, Freeman Hospital, Newcastle Upon Tyne, UK. The effectiveness of the new substrates was compared with three other media which all contained indoxyl-β-D-glucuronides. One was a commercial medium, CPS ID 3 (bioMérieux SA, Lyon, France). […] This medium was employed as a control. Among the β-D-glucuronidase producing strains of E. coli there is a large variation in the quantity of the enzyme produced and it is almost certain that the CPS ID 3 medium has been rigorously optimised to allow good growth of all the target organisms and maximum expression of the target enzymes. Therefore, two indoxyl glucuronides, X-β-D-glucuronide CHA salt and Rose-β-D-glucuronide CHA salt were also tested in a simple agar medium to allow a direct comparison of the sensitivity of these Indoxyl glucuronides when used in a medium that has not been optimised for the growth of the target organism. The comparison of the results for Rose-β-D-glucuronide and the CPS ID 3 medium was of particular significance as the commercial medium also uses Rose-β-D-glucuronide for the detection of E. coli. For consistency, the four glucuronides were all chosen as their CHA salts. As already stated, it is not anticipated that the salt form is critical to their performance. Currently. X-β-D-glucuronide is often used as either the CHA salt or the sodium salt. Brenner and colleagues [K. P. Brenner et al, Appl. Environ. Microbiol., 59, 3534-3544, (1993)] found no difference in the performance of the CHA and sodium salt forms with their application using indoxyl-β-D-glucuronide, neither in respect of colour development nor in the recovery of E. coli.
# The two indoxyl glucuronides used produce insoluble endpoints following hydrolysis, as does the CPS ID 3 medium. It was therefore necessary to test these two substrates on agar plates. In contrast, catechol-β-D-glucuronide (1) and DHN-β-D-glucuronide (2b) give much more soluble endpoints best suited to liquid media and were therefore tested in a broth medium. Each broth was prepared using proteose peptone (Oxoid, Basingstoke, UK) (2 g), NaCl (1 g) and FAC (100 mg) in DI water (180 mL). This mixture was autoclaved and cooled to room temperature before being dispensed into bijoux (100×1.8 mL). Catechol β-D-glucuronide CHA salt (1) or DHN-β-D-glucuronide CHA salt (2b) (60 mg) were each dissolved in water (20 mL) and filtered to sterilize before being aseptically dispensed into successive bijoux (0.2 mL) containing the broth solution. The broth/substrate solutions were then inoculated with bacterial suspensions made up to 0.5 McFarland standard (2 μL per bijoux). X-β-D-glucuronide CHA salt (Glycosynth Ltd, Warrington, UK) (10 mg) was dissolved in NMP (200 μL). Rose-β-D-glucuronide CHA salt (Glycosynth Ltd, Warrington, UK) (20 mg) was dissolved in NMP (200 μL). These solutions were then added to Columbia agar (Oxoid, Basingstoke, UK) (100 mL) and inoculated with bacterial suspensions made up to 0.5 McFarland standard (1 μL). The plates and broths were incubated at 37° C. for 18 hours in air.
# [1] = 100 E. coli strains after 18 h incubation, broth
smiles,measurement,setting,value
"O=C(O)C1OC(Oc2cc3ccccc3cc2O)C(O)C(O)C1O [Compound 2b, DHN-β-D-Glucuronide CHA Salt]",% Sensitivity,[1],82%
same,Negative strains,[1],18
same,Positive strains,[1],82
same,colour,"E. coli 260262P, broth",Purple
same,colour,"E. coli 260280Z, broth",Purple
same,colour,"E. coli 260310H, broth",Purple
same,colour,"E. coli 260313A, broth",—
same,colour,"E. coli 260316T, broth",—
same,colour,"E. coli 260327V, broth",Purple
same,colour,"E. coli 260330Y, broth",Purple
same,colour,"E. coli 260333P, broth",—
same,colour,"E. coli 260345F, broth",Purple
same,colour,"E. coli 260348K, broth",Purple
same,colour,"E. coli 260354W, broth",Purple
same,colour,"E. coli 260364H, broth",—
same,colour,"E. coli 260370C, broth",Purple
same,colour,"E. coli 260375E, broth",Purple
same,colour,"E. coli 260390B, broth",—
same,colour,"E. coli 260396Z, broth",Purple
same,colour,"E. coli 260398Q, broth",Purple
same,colour,"E. coli 260400N, broth",—
same,colour,"E. coli 260401Q, broth",Purple
same,colour,"E. coli 260402H, broth",Purple
same,colour,"E. coli 260404W, broth",Purple
same,colour,"E. coli 260405P, broth",Purple
same,colour,"E. coli 260406A, broth",—
same,colour,"E. coli 260406Y, broth",Purple
same,colour,"E. coli 260407F, broth",Purple
same,colour,"E. coli 260408C, broth",Purple
same,colour,"E. coli 260411Z, broth",Purple
same,colour,"E. coli 260412Q, broth",Purple
same,colour,"E. coli 260414H, broth",Purple
same,colour,"E. coli 260415Y, broth",Purple
same,colour,"E. coli 260416W, broth",Purple
same,colour,"E. coli 260417P, broth",Purple
same,colour,"E. coli 260422Y, broth",Purple
same,colour,"E. coli 260424P, broth",Purple
same,colour,"E. coli 260425A, broth",Purple
same,colour,"E. coli 260426F, broth",Purple
same,colour,"E. coli 260428T, broth",Purple
same,colour,"E. coli 260431N, broth",Purple
same,colour,"E. coli 260432E, broth",Purple
same,colour,"E. coli 260433H, broth",Purple
same,colour,"E. coli 260434Y, broth",Purple
same,colour,"E. coli 260435W, broth",Purple
same,colour,"E. coli 260436P, broth",Purple
same,colour,"E. coli 260437A, broth",—
same,colour,"E. coli 260438F, broth",Purple
same,colour,"E. coli 260439C, broth",Purple
same,colour,"E. coli 260440S, broth",Purple
same,colour,"E. coli 260441G, broth",Purple
same,colour,"E. coli 260458Y, broth",Purple
same,colour,"E. coli 260459W, broth",Purple
same,colour,"E. coli 260463D, broth",Purple
same,colour,"E. coli 260464G, broth",Purple
same,colour,"E. coli 260471B, broth",—
same,colour,"E. coli 260478N, broth",—
same,colour,"E. coli 260479Q, broth",Purple
same,colour,"E. coli 260480M, broth",Purple
same,colour,"E. coli 260481J, broth",Purple
same,colour,"E. coli 260483R, broth",—
same,colour,"E. coli 260485D, broth",Purple
same,colour,"E. coli 260486L, broth",Purple
same,colour,"E. coli 260492J, broth",Purple
same,colour,"E. coli 260494B, broth",Purple
same,colour,"E. coli 260495R, broth",Purple
same,colour,"E. coli 260497D, broth",Purple
same,colour,"E. coli 260502G, broth",Purple
same,colour,"E. coli 260503Z, broth",Purple
same,colour,"E. coli 260504N, broth",Purple
same,colour,"E. coli 260505Q, broth",—
same,colour,"E. coli 260506E, broth",Purple
same,colour,"E. coli 260508Y, broth",Purple
same,colour,"E. coli 260509W, broth",Purple
same,colour,"E. coli 260510R, broth",Purple
same,colour,"E. coli 260511X, broth",Purple
same,colour,"E. coli 260514G, broth",—
same,colour,"E. coli 260515Z, broth",Purple
same,colour,"E. coli 260521S, broth",Purple
same,colour,"E. coli 260522Z, broth",Purple
same,colour,"E. coli 260532S, broth",Purple
same,colour,"E. coli 260533G, broth",Purple
same,colour,"E. coli 260536Q, broth",Purple
same,colour,"E. coli 260537E, broth",—
same,colour,"E. coli 260538H, broth",—
same,colour,"E. coli 260539Y, broth",Purple
same,colour,"E. coli 260541R, broth",Purple
same,colour,"E. coli 260545G, broth",Purple
same,colour,"E. coli 260547N, broth",Purple
same,colour,"E. coli 260548Q, broth",Purple
same,colour,"E. coli 260549E, broth",Purple
same,colour,"E. coli 260553X, broth",—
same,colour,"E. coli 260554D, broth",Purple
same,colour,"E. coli 260555L, broth",Purple
same,colour,"E. coli 260563B, broth",Purple
same,colour,"E. coli 260564R, broth",Purple
same,colour,"E. coli 260578D, broth",—
same,colour,"E. coli 2603121P, broth",—
same,colour,"E. coli 2604399E, broth",Purple
same,colour,"E. coli O157 non-toxigenic, broth",—
same,colour of positive solutions,"broth with FAC, in words",purple solutions
